What was measured:
Assay type in all cases: cell-based, E. coli
O-mRNA-Aα and O-mRNA-Cα = assay: Boolean OR gate, β-galactosidase FDG fluorescence; settings: OR gate, DH10B
O-mRNA-Cα and O-mRNA-Aω = assay: Boolean AND gate, β-galactosidase FDG fluorescence; settings: BW26444 cells
Procedure: The AND function was created in BW26444 cells, which are deleted in lacZ. Their genotype is (Δ(araD-araB)567, Δ(lacA-lacZ)519(::FRT), laclp-4000(lacl^Q), λ^−, rpoS396(Am), rph-1, Δ(rhaD-rhaB)568, hsdR514). Heat shock competent BW26444 cells containing the logic gate plasmid were prepared by standard CaCl2 treatment, and combinations of rRNA inputs accessed by double transformation. Transformed cells were recovered in SOB with 2% glucose and transferred to LB agar containing 2% glucose, 50 μg ml^−1 ampicillin, 25 μg ml^−1 kanamycin, 12.5 μg ml^−1 tetracycline and incubated (16 h, 37° C.). Individual colonies were transferred to each well of a 96 well culture block containing 100 μl of media (LB containing 2% glucose, 50 μg ml^−1 ampicillin, 25 μg ml^−1 kanamycin, 12.5 μg ml^−1 tetracycline) and grown overnight. Cells were pelleted by centrifugation (3000 g, 5 min) and resuspended in 1 ml of LB containing 50 μg ml^−1 ampicillin, 25 μg ml^−1 kanamycin, 12.5 μg ml^−1 tetracycline. After a further 1 h incubation (37° C., 250 rpm) cells were supplemented with isopropyl-β-D-thiogalactopyranoside (to 1 mM), and incubated (37° C., 250 rpm, 4 h) and the OD600 measured. […] An equal volume of 2× buffer Z (120 mM Na2HPO4, 80 mM NaH2PO4, 20 mM KCl, 2 mM MgSO4, 100 mM β-mercaptoethanol) containing fluorescein di-β-D-galactopyranoside (Molecular Probes, final concentration 0.5 mM) was added and incubated (22° C.) until a strong fluorescent signal was detected (approximately 5 min). […] Fluorescence was detected using a Spectra Max Gemini XS (Molecular Devices), with excitation at […] and emission detection at 450 nm.
Fluorescence was normalized for cell density and time of incubation with β-galactosidase substrate, using the equation: Fluorescence=1000×(raw fluorescence450 nm)/(t.V.OD600) Where (t) is time of incubation in seconds and (V) is the volume of culture used. […]
Cells containing a plasmid encoding both O-mRNA-Cα and O-mRNA-Aω were programmed with either wild-type rRNA, rRNA-A, rRNA-C or rRNA-C and rRNA-A together, and the conversion of FDG to fluorescein measured. […]

O-mRNA-Ccat = assay: Translation of cat from O-mRNA-Ccat, chloramphenicol resistance, compatible rRNA plasmids
Excerpt: The RSF rRNA expression plasmid was derived from the previously described Col E1 expression plasmid (pTrc16S23S; Rackham & Chin, 2005, Nature Chem. Biol. 1: 159-166). The RSF1030 replicon, containing a kanamycin resistance gene, was amplified by PCR from pRSFDuet-1 (Novagen) using the oligonucleotides 5′-[…]-3′(SEQ ID NO: 120) and 5′-[…]-3′ (SEQ ID NO: 121). The resulting PCR product was digested with Kpn I and Sph I and used to replace the Kpn I, Sph I replicon-containing portion of pTrc 16S23S ribosome plasmids. CAT activity assays for orthogonal ribosome activity were performed as described in Rackham & Chin, 2005, supra).
One vector for rRNA production has a ColE1 origin of replication and an ampicillin resistance gene and is present at about 50 copies per cell. A second vector for rRNA production has an RSF origin of replication and a kanamycin resistance gene, and is present at about 100 copies per cell. […] To ascertain the effect of plasmid flanking sequences and plasmid copy number on the activity of the O-ribosomes incorporating plasmid-encoded rRNA, the translation of the chloramphenicol acetyl transferase gene (cat) from O-mRNA-Ccat (a version of cat with the 5′ orthogonal ribosome binding site C) was measured. […]

Substance	fluorescence (O-mRNA-Aα and O-mRNA-Cα)	fluorescence (conversion of FDG to fluorescein) (O-mRNA-Cα and O-mRNA-Aω)	fluorescence signal above background (O-mRNA-Aα and O-mRNA-Cα) [fold]	IC50 chloramphenicol resistance (O-mRNA-Ccat; ColE1 plasmid) [µg/mL]	IC50 chloramphenicol resistance (O-mRNA-Ccat; RSF plasmid) [µg/mL]
wild-type rRNA: wild-type 16S rRNA, SEQ ID NO:116, plasmid-encoded control input (AUCACCUCCUUA; listed as Escherichia coli) [reference compound]	comparable to that observed in the absence of plasmid-encoded a fragment	low fluorescence			
rRNA-C: O-rRNA-C, SEQ ID NO:129, orthogonal 16S rRNA cognate to O-mRNA-C; probably rRNA-9 (AUCAUGGGAUUA; expressed or natural sequence)		low fluorescence	15	150	250
rRNA-A: O-rRNA-A, SEQ ID NO:125, orthogonal 16S rRNA cognate to O-mRNA-A; probably rRNA-2 (AUCACUGUGGUA; expressed or natural sequence)		low fluorescence	10		
